Measurements published in PMC4460047 (PLoS ONE, 2015).

Tests used:
liver FAAH = test system: liver FAAH; design: method as in PMID 17217969; conditions: cited from earlier work
[1] = test system: amidase activity in rat liver homogenate; assay type: biochemical
Description: Fig 8 Role of amidase activity on compound degradation in rat liver homogenate.

[2] = Chemical stability in phosphate buffered saline pH 7.4; assay type: physicochemical; conditions: percent remaining after 6 h of incubation at 37°C in PBS buffer pH 7.4
Protocol: (§1) The chemical and metabolic stability of PEA and all prodrugs were studied by incubating each compound (5 μL of a […] solution in DMSO, or DMSO as control) with 495 μL of 10 mM phosphate buffered saline pH 7.4 for chemical stability, 80% v/v rat plasma or 20% w/v rat liver homogenate prepared accordingly to previously described procedures for metabolic stability, reaching a final concentration of 50 nm for the test compound.
(§2) Rat plasma and liver samples were pre-incubated at 37°C for 10 min before adding the compounds. After incubation for different time periods (0, 15, 30, 60, 120, 240 and 360 min), samples were deproteinized by adding 100 μL of acetonitrile with 75 nmol L^-1 IS (PEA-d4). The samples were centrifuged (14 000 g, 10 min, 4°C), and the supernatants were analyzed by HPLC–ESI–MS/MS. For each tested compound, a multiple reaction monitoring (MRM) ESI–MS/MS method was set up in order to monitor the relative concentration of compound and released PEA at the different incubation times, compared to the time t = 0, in rat plasma and liver homogenate.

[3] = Plasma levels after oral administration to Wistar rats; assay type: in vivo, rat; conditions: for AUC(0-t) / concentration at 15 min / concentration at 30 min / concentration at 60 min / concentration at 120 min / concentration at 240 min / concentration at 360 min / concentration at 480 min: male, rat, plasma, po, n = 9; for AUC(0-t): Wistar, administered compound, mean±SEM, read-out: AUC0- 480 (converted); for AUC(0-t) / Cmax of administered compound in rat plasma / Time of Cmax of administered compound in rat plasma: p.o.; for Cmax of administered compound in rat plasma / Time of Cmax of administered compound in rat plasma: PEA 100 mg kg-1, 20, 28 145 mg kg-1; for concentration at 15 min / concentration at 30 min / concentration at 60 min / concentration at 120 min / concentration at 240 min / concentration at 360 min / concentration at 480 min: p.o. 145 mg kg-1, Wistar rats, mean ± SEM; for concentration at 15 min: read-out: Prodrug Conc in plasma, 15 min; for concentration at 30 min: read-out: Prodrug Conc in plasma, 30 min; for concentration at 60 min: read-out: Prodrug Conc in plasma, 60 min; for concentration at 120 min: read-out: Prodrug Conc in plasma, 120 min; for concentration at 240 min: read-out: Prodrug Conc in plasma, 240 min; for concentration at 360 min: read-out: Prodrug Conc in plasma, 360 min; for concentration at 480 min: read-out: Prodrug Conc in plasma, 480 min
Protocol: Twenty-seven male Wistar rats (Charles River Laboratories, Italy), 150–250 g in weight, were used in the study. Number of animals was calculated by G-power a priori analysis (α = 0.05 and β = 0.05). Animals were housed in group in policarbonate cages (Tecniplast, Italy) in a conventional facility with controlled temperature 22±1°C, a relative humidity of 55±5%, and a 12 h light/dark cycle (6:00 am to 6:00 pm). The rats were provided standard pellet diet (4RF21 GLP Mucedola, Italy) and water ad libitum throughout the study. The experiments were started only after acclimatization of animals to the laboratory conditions. Before the experiments, rats were fasted for 18 h, with free access to drinking water. Animals were randomized in three experimental groups (nine animals for each group) receiving respectively L-Val-PEA (20), D-Val-PEA (28) and PEA (1).
The day of the experiments substances were turned into a corn oil suspension, after ultrasound and vortexing and they were administered to rats between 8.00 and 10.00 am by gastric gavage at the equimolar doses of 145 mg kg^-1 for L- and D-Val-PEA (20, 28) and 100 mg kg^-1 of PEA (1). Blood samples were collected via sub-tongue puncture from each anaesthetized rat (2% isofluran in air) to minimize any suffering. Blood samples of 0.2 mL were collected before treatment and at 15, 30, 60, 120, 240, 360 and 480 min post-dosing into EDTA-treated tubes (Sarstedt, Germany), immediately centrifuged (5000 rpm, 10 min, 4°C; refrigerated microcentrifuge Z 216 MK, Hermle LaborTechnik). Resulting plasma was immediately processed by protein precipitation with ice-cold acetonitrile containing the IS 75 nmol L^-1 (PEA-d4) and analyzed as previously described. AUC values were calculated employing the software add-ons of Microsoft Excel.

[4] = Stability and PEA release in 80% v/v rat plasma; assay type: in vitro ADME; conditions: for half-life at 50 nM: rat, pH 7.4, 80% v/v rat plasma, 50 nm compound, read-out: Rat Plasma Compd t 1/2
Protocol: as §1, §2
Cmax and tmax in rat plasma were read from the raw data as the coordinates of the highest concentration observed. A Thermo TSQ Quantum triple-quadrupole mass spectrometer (Thermo Italia, Milan, Italy) with heated electrospray ionization (H-ESI) ion source was used for mass detection and analysis. Mass spectrometric analyses were done in positive ion mode. H-ESI interface parameters were set as follows: probe middle (D) position; capillary temperature 270°C; spray voltage 3.0 kV. Nitrogen was used as nebulizing gas at the following pressure: sheath gas 35 psi; auxiliary gas 15 arbitrary units (a.u.). Argon was used as the collision gas at a pressure of approximately 1.5 mtorr (1 torr = 133.3 Pa). For quantitative analysis, the following parent ion → product ions transitions were selected: PEA (1): m/z 300.2 → m/z 62.3 (tube lens 60 V; collision energy 19 eV); PEA-d4 (Internal Standard): m/z 304.2 → m/z 66.3 + m/z 287.2 (tube lens 72 V; collision energy 15, 12 eV). MRM transitions, tube lens voltages and collision energies for compounds 3–5, 7–9, 19–24, 26–31, and 33 are reported in the S1 File. […] The coefficients of correlation (r^2) were >0.99 for all curves. The LOQ was 1 nmol mL^−1 for all analytes. Extraction efficiency was determined by comparing the peak area ratio of spiked samples at three concentration levels (low, intermediate, and high) to those of extracted charcoal treated blank plasma spiked with the corresponding concentrations. The mean extraction recovery ranged from 109% to 91% for all compounds. The specificity of the assay was evaluated by comparison of HPLC–ESI–MS/MS chromatograms of the analytes at the LOQ to those of charcoal treated blank plasma samples in triplicate.

[5] = Beagle dogs, oral 30 mg kg-1; cited from earlier work
[6] = Stability in 20% w/v rat liver homogenate; assay type: in vitro ADME; conditions: for half-life at 50 nM: rat liver homogenate, read-out: Rat Liver Compd t 1/2
Protocol: as §1, §2

[7] = after addition of 25 pmol of PEA, 80% v/v rat plasma
[8] = rat, 20% w/v rat liver homogenate, 37°C

## NC(=O)c1cccc(-c2cccc(OC(=O)NC3CCCCC3)c2)c1 [URB597, cyclohexylcarbamic acid 3'-carbamoylbiphenyl-3-yl ester]
Liver FAAH
  IC50: ~3 nM
[1]; URB597 10 μm pre-incubation
  Effect on PEA hydrolysis: complete inhibition of PEA hydrolysis
  Effect on conversion of 20 into PEA: quantitative conversion of 20 into PEA
[1]; URB597 100 nm, 10 min pretreatment, p<0.05
  Effect on PEA concentrations vs control incubations of PEA and 20: partial, but statistically significant, increase of PEA concentrations

## CCCCCCCCCCCCCCCC(=O)NCCO [compound 1, Palmitoylethanolamide, reference compound]
[2]
  %Compd at 6 h, pH 7.4: 95 ± 1%
[2]; listed as PEA
  %Compd at 6 h, pH 7.4: 95%
[3]
  AUC(0-t): 109 ng·h/mL
  Cmax of administered compound in rat plasma: 420 ± 132 nm
  Time of Cmax of administered compound in rat plasma: 15 min
[3]; p.o. PEA 100 mg kg-1, 15 min
  Increase of PEA basal plasma values at Cmax: 20 fold
[4]; [7]
  PEA concentration in rat plasma after 1 h: 56.2 ± 4.3 nM
  PEA concentration in rat plasma after 6 h: 44.0 ± 3.2 nM
  PEA concentration in rat plasma at starting point: 71.9 ± 2.1 nM
[4]; pH 7.4, 80% v/v rat plasma, 37°C, 6 h, read-out: Percent remaining after 6 h incubation in rat plasma
  remaining at 6 h, 50 nM: 70 ± 2%
[5]
  Increase in basal plasma levels at Cmax: five-fold increase
  Time of maximal plasma concentration (Cmax): 1 to 2 h
[6]; no detectable basal PEA levels
  PEA concentration in rat liver homogenate after 120 min: 4.0 ± 1.2 nM
[6]; [8]
  half-life at 50 nM: ~25 min

## CCCCCCCCCCCCCCCC(=O)NCCOC(=O)[C@@H](N)C(C)C.Cl [compound 20, 2-(palmitoylamino)ethyl L-valinate hydrochloride]
[2]
  %Compd at 6 h, pH 7.4: 91 ± 2%
[3]
  AUC(0-t): 129 ng·h/mL
  concentration at 15 min: 612 nM
  concentration at 30 min: 212 nM
  concentration at 60 min: 35.8 nM
  concentration at 120 min: 22.2 nM
  concentration at 240 min: 7.1 nM
  concentration at 360 min: 2.7 nM
  concentration at 480 min: 9.3 nM
  Cmax of administered compound in rat plasma: 612 nm
  Time of Cmax of administered compound in rat plasma: 15 min
[4]; rat plasma
  Increase in plasma half-life relative to L-Ala-PEA: 46 fold
[4]; 80% v/v rat plasma, 37°C
  half-life at 50 nM: 46 ± 3 min
[6]; [8]
  half-life at 50 nM: 26 ± 1 min

## CCCCCCCCCCCCCCCC(=O)NCCOC(=O)[C@H](N)C(C)C.Cl [compound 28, 2-(Palmitoylamino)ethyl D-valinate hydrochloride]
[2]
  %Compd at 6 h, pH 7.4: 87 ± 2%
[3]
  AUC(0-t): 231 ng·h/mL
  concentration at 15 min: 907 nM
  concentration at 30 min: 280 nM
  concentration at 60 min: 65.9 nM
  concentration at 120 min: 56.4 nM
  concentration at 240 min: 39.9 nM
  concentration at 360 min: 11.4 nM
  concentration at 480 min: 10.1 nM
  Cmax of administered compound in rat plasma: 907 nm
  Time of Cmax of administered compound in rat plasma: 15 min
[4]; rat plasma
  Rat plasma half-life relative to L-Val-PEA (20): over 6 fold
[4]; 80% v/v rat plasma, 37°C
  half-life at 50 nM: 173 ± 4 min
[6]; rat, 20% w/v rat liver homogenate, 37°C, 2 h, read-out: Percent remaining after 2 h incubation in rat liver homogenate
  remaining at 2 h, 50 nM: 67 ± 9%
